Experimental data from PMC6437697 (Journal of Medicinal Chemistry, 2019).

Key:
Experiment in all cases: KINOMEscan
Assay type in all cases: binding
Conditions in all cases: read-out: % control activity remaining
[1] = molecular target: T1, CHEK2 (Homo sapiens, UniProt O96017)
T1 construct: purchased Eurofins DiscoverX KINOMEscan

[2] = molecular target: T2, DCAMKL3 (Homo sapiens, UniProt Q9C098)
T2 construct: purchased Eurofins DiscoverX KINOMEscan
T2 sequence (Q9C098 1-648): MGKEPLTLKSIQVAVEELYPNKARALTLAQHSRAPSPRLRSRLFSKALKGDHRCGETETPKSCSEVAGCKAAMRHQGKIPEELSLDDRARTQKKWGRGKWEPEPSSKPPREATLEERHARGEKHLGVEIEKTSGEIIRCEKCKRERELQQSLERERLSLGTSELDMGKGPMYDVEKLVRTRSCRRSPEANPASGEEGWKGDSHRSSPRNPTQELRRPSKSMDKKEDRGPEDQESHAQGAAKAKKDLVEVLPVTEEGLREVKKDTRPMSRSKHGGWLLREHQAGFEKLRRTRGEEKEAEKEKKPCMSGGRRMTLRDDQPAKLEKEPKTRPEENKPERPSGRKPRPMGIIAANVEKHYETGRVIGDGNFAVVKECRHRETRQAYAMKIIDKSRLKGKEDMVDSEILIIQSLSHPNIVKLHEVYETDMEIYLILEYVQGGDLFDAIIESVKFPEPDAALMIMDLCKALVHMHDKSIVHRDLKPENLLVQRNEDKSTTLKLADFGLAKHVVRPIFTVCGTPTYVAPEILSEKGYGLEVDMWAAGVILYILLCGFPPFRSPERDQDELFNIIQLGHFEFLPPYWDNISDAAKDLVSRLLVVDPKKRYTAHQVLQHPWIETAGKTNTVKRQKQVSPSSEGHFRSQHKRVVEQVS

[3] = molecular target: T3, DYRK2 (Homo sapiens, UniProt Q92630)
T3 construct: purchased Eurofins DiscoverX KINOMEscan
T3 sequence (Q92630 1-601): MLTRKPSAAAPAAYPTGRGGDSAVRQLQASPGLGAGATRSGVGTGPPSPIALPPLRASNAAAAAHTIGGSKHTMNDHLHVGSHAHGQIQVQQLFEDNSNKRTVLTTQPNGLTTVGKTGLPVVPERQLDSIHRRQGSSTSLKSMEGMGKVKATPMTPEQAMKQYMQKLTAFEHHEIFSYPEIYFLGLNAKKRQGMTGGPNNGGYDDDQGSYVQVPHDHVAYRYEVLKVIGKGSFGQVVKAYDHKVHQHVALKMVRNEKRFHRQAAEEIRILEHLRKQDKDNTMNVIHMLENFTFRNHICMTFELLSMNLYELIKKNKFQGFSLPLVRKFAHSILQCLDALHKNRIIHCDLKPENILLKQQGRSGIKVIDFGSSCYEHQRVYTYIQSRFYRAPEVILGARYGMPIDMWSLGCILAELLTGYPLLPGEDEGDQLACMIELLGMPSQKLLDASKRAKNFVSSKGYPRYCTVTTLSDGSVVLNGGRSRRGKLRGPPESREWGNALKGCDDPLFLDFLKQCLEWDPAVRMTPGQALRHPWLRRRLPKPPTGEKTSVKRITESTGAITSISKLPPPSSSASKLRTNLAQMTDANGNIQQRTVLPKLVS

[4] = molecular target: T4, MAP4K2 (Homo sapiens, UniProt Q12851)
T4 construct: purchased Eurofins DiscoverX KINOMEscan
T4 sequence (Q12851 1-820): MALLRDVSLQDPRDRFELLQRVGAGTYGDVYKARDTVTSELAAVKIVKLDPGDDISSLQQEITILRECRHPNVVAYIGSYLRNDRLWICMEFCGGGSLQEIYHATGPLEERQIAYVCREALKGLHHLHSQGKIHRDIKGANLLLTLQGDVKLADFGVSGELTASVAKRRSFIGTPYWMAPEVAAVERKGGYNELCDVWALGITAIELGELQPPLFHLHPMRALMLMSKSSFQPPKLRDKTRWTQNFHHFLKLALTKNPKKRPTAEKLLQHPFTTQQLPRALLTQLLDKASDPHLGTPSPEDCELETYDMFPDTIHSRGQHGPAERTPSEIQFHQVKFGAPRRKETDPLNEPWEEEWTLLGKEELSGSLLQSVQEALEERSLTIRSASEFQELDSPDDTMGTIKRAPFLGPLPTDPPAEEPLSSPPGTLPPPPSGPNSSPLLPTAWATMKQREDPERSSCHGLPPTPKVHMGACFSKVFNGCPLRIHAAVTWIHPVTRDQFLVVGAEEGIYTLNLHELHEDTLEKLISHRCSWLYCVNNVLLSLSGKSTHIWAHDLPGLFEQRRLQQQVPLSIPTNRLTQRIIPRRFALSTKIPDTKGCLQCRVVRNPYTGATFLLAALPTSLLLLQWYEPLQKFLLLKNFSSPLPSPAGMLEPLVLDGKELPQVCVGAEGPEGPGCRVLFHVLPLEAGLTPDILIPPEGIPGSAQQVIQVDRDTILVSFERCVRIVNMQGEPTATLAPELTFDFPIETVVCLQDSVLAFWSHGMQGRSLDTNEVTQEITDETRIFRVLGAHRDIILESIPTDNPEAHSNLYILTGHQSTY

[5] = molecular target: T5, MKNK1 (Homo sapiens, UniProt Q9BUB5)
T5 construct: purchased Eurofins DiscoverX KINOMEscan

[6] = molecular target: T6, MKNK2 (Homo sapiens, UniProt Q9HBH9)
T6 construct: purchased Eurofins DiscoverX KINOMEscan
T6 sequence (Q9HBH9 whole entry): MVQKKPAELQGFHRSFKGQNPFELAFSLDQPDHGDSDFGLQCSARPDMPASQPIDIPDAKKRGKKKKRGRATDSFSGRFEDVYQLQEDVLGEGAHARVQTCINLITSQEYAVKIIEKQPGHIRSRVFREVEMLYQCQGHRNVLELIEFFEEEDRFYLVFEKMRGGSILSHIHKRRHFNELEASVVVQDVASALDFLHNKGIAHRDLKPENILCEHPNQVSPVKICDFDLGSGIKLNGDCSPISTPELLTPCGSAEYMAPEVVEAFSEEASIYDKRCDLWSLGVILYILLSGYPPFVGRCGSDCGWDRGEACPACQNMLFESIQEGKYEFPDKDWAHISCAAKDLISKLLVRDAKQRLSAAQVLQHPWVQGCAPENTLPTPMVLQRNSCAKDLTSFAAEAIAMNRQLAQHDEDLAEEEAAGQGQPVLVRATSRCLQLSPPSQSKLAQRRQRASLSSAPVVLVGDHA

T5 sequence (Q9BUB5 whole entry): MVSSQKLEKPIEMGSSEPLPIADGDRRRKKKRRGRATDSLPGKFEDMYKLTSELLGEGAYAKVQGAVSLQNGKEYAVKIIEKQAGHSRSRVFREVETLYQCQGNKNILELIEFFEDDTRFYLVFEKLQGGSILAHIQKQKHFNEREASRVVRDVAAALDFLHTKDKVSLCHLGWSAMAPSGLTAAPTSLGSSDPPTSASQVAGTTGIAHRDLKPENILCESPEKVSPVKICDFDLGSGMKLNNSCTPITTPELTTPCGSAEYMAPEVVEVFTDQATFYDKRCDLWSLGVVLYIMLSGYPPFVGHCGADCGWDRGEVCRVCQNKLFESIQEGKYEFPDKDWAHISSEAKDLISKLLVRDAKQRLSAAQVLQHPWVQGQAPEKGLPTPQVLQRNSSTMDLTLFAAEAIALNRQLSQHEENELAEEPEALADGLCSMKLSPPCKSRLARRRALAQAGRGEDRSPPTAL
T1 sequence (O96017 whole entry): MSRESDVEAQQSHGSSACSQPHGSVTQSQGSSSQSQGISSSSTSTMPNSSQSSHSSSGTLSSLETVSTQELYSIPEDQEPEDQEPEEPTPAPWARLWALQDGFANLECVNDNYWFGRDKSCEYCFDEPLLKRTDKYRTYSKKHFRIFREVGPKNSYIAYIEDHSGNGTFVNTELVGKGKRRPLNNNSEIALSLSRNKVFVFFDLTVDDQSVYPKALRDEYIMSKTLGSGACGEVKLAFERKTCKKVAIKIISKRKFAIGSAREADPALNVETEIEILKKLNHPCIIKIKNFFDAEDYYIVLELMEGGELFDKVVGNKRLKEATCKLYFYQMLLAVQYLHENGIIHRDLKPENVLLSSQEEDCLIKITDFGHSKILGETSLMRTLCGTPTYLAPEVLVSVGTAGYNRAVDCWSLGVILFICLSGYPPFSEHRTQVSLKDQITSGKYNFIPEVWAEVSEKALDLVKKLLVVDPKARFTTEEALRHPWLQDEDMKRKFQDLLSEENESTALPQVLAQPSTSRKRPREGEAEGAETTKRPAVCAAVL

SMILES	remaining binding at 1 µM [1] [%]	remaining binding at 1 µM [2] [%]	remaining binding at 1 µM [3] [%]	remaining binding at 1 µM [4] [%]	remaining binding at 1 µM [5] [%]	remaining binding at 1 µM [6] [%]
Clc1cc(NCC2CC2)c2ncc(-c3ccc4[nH]ncc4c3)n2n1 [compound 2, 6-Chloro-N-(cyclopropylmethyl)-3-(1H-indazol-5-yl)imidazo[1,2-b]pyridazin-8-amine]	88	100	28	99	82	80
O=C(CN1CCOCC1)N[C@H]1CC[C@H](Nc2cc(Cl)nn3c(-c4ccc5[nH]ncc5c4)cnc23)CC1 [compound 26]	61	100	8	76	88	67
CN1CCC(CNc2cc(Cl)nn3c(-c4cc5nc(Nc6ccccc6)[nH]c5cc4F)cnc23)CC1 [compound 31, 6-Chloro-3-(6-fluoro-2-(phenylamino)-1H-benzo[d]imidazol-5-yl)-N-((1-methylpiperidin-4-yl)methyl)imidazo[1,2-b]pyridazin-8-amine]	100	100	99	85	83	74
